Assay results: ChEMBL document CHEMBL1201862, “PubChem BioAssay data set” (2004)
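Step 1: Grow cells in 96-well plates. Step 2: Expose to compound for 48 hours at 5 concentrations. Step 3: Interpolate endpoints linearly; if unreached, use highest concentration. GI50 marks 50% less growth.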 Calls of active or inactive are those of the source. Cut-off read from the data, not from the text of the source: active = GI50 up to about 1.1 µM and inactive = higher.

Experiments:
Assay in all cases: inhibition of tumour cell growth, NCI panel, 48 h
[1] = test system: U-251
[2] = test system: HT-29
[3] = test system: IGROV-1
[4] = test system: KM12
[5] = test system: T47D
[6] = test system: SR
[7] = test system: COLO 205
[8] = test system: KM-20L2
[9] = test system: ACHN
[10] = test system: RPMI-8226
[11] = test system: RXF 631
[12] = test system: NCI-H23
[13] = test system: MCF7
[14] = test system: CAKI-1
[15] = test system: A549
[16] = test system: NCI/ADR-RES
[17] = test system: K562
[18] = test system: M19-MEL
[19] = test system: TK-10
[20] = test system: NCI-H522
[21] = test system: MDA-MB-231
[22] = test system: NCI-H460
[23] = test system: CCRF-CEM
[24] = test system: 786-0
[25] = test system: HL-60
[26] = test system: MDA-MB-435
[27] = test system: SF-268
[28] = test system: SNB-78
[29] = test system: M14
[30] = test system: PC-3
[31] = test system: OVCAR-4
[32] = test system: HOP-18
[33] = test system: OVCAR-5
[34] = test system: SK-OV-3
[35] = test system: DLD-1
[36] = test system: DU-145
[37] = test system: XF498
[38] = test system: SF-295
[39] = test system: OVCAR-3
[40] = test system: NCI-H226
[41] = test system: SNB-75
[42] = test system: HCT-15
[43] = test system: DMS-114
[44] = test system: RXF 393
[45] = test system: A498
[46] = test system: HOP-92
[47] = test system: HCC 2998
[48] = test system: SF-539
[49] = test system: OVCAR-8
[50] = test system: SK-MEL-5
[51] = test system: UO-31
[52] = test system: EKVX
[53] = test system: HCT-116
[54] = test system: SK-MEL-2
[55] = test system: DMS-273
[56] = test system: UACC-62
[57] = test system: SNB-19
[58] = test system: SN12C
[59] = test system: Hs-578T
[60] = test system: HOP-62
[61] = test system: Malme-3M
[62] = test system: LXFL 529
[63] = test system: SW-620
[64] = test system: MDA-N
[65] = test system: SK-MEL-28
[66] = test system: MOLT-4
[67] = test system: UACC-257
[68] = test system: BT-549
[69] = test system: LOX IMVI

For `Cc1ccc2oc(=O)c3c(O)c4cccc(OC5OC(C)C6O[C@@H](c7ccccc7)OC6C5OC5OC(C)C(O)C(O)C5O)c4c4oc(=O)c1c2c34` (some centres undefined), the GI50 [1] was 0.0535 µM (active), the GI50 [2] was 0.0472 µM (active) and the GI50 [3] was 0.0264 µM (active). For the same compound, the GI50 [4] was 0.0785 µM (active), the GI50 [5] was 0.0585 µM (active) and the GI50 [6] was < 0.011 µM (active). The GI50 [7] was 0.0675 µM (active), the GI50 [8] was 0.0354 µM (active) and the GI50 [9] was 0.027 µM (active). For the same compound, the GI50 [10] was 0.0366 µM (active), the GI50 [11] was 0.0456 µM (active) and the GI50 [12] was 0.0492 µM (active). The GI50 [13] was 0.0324 µM (active), the GI50 [14] was 0.138 µM (active) and the GI50 [15] was 0.0354 µM (active). The GI50 [16] was 3.66 µM (inactive), the GI50 [17] was 0.0404 µM (active) and the GI50 [18] was 0.11 µM (active). For the same compound, the GI50 [19] was 0.392 µM (active), the GI50 [20] was 0.0574 µM (active) and the GI50 [21] was 0.197 µM (active). For the same compound, the GI50 [22] was < 0.0316 µM (active), the GI50 [23] was 0.0182 µM (active) and the GI50 [24] was 0.0389 µM (active). The GI50 [25] was 0.0536 µM (active), the GI50 [26] was 0.27 µM (active) and the GI50 [27] was 0.0545 µM (active). For the same compound, the GI50 [28] was 0.708 µM (active), the GI50 [29] was 0.187 µM (active) and the GI50 [30] was 0.0955 µM (active). The GI50 [31] was 0.32 µM (active), the GI50 [32] was 0.466 µM (active) and the GI50 [33] was 0.162 µM (active). The GI50 [34] was 0.2 µM (active), the GI50 [35] was 0.156 µM (active) and the GI50 [36] was 0.174 µM (active). The GI50 [37] was 0.0486 µM (active), the GI50 [38] was 0.0303 µM (active) and the GI50 [39] was 0.0857 µM (active). The GI50 [40] was 0.0327 µM (active), the GI50 [41] was 0.0492 µM (active) and the GI50 [42] was 0.553 µM. The GI50 [43] was 0.262 µM (active), the GI50 [44] was 0.187 µM (active) and the GI50 [45] was 0.0274 µM (active). The GI50 [46] was 0.843 µM (active), the GI50 [47] was 0.0442 µM (active) and the GI50 [48] was 0.0571 µM (active). For the same compound, the GI50 [49] was < 0.0215 µM (active), the GI50 [50] was 0.0509 µM (active) and the GI50 [51] was 1.14 µM (inactive). For the same compound, the GI50 [52] was 0.461 µM (active), the GI50 [53] was < 0.0171 µM (active) and the GI50 [54] was 0.196 µM (active). For the same compound, the GI50 [55] was 0.0278 µM (active), the GI50 [56] was 0.0449 µM (active) and the GI50 [57] was 0.334 µM (active). The GI50 [58] was 0.051 µM (active), the GI50 [59] was 0.119 µM (active) and the GI50 [60] was 0.0452 µM (active). For the same compound, the GI50 [61] was 0.441 µM (active), the GI50 [62] was 0.0594 µM (active) and the GI50 [63] was 0.0486 µM (active). For the same compound, the GI50 [64] was 0.121 µM (active) and the GI50 [65] was 0.159 µM (active).

In the case of `C/C(=N\N)C(CN(C)C)C(c1ccccc1)c1c(O)c2ccccc2oc1=O` (centres undefined), the GI50 [1] was > 87.1 µM (inactive), the GI50 [2] was > 100 µM (inactive) and the GI50 [3] was > 100 µM (inactive). The GI50 [4] was > 100 µM (inactive), the GI50 [5] was > 10 µM (inactive) and the GI50 [6] was > 67.1 µM (inactive). For the same compound, the GI50 [7] was > 100 µM (inactive), the GI50 [8] was > 100 µM (inactive) and the GI50 [9] was 99.5 µM (inactive). The GI50 [10] was 97.3 µM (inactive), the GI50 [11] was > 100 µM (inactive) and the GI50 [12] was > 100 µM (inactive). The GI50 [13] was > 100 µM (inactive), the GI50 [14] was > 100 µM (inactive) and the GI50 [15] was > 100 µM (inactive). For the same compound, the GI50 [16] was > 100 µM (inactive), the GI50 [66] was > 55.5 µM (inactive) and the GI50 [17] was > 60 µM (inactive). The GI50 [18] was 95.7 µM (inactive), the GI50 [19] was > 100 µM (inactive) and the GI50 [20] was > 94.4 µM (inactive). The GI50 [21] was > 100 µM (inactive), the GI50 [22] was > 100 µM (inactive) and the GI50 [23] was > 27 µM (inactive). For the same compound, the GI50 [24] was > 100 µM (inactive), the GI50 [25] was > 26.7 µM (inactive) and the GI50 [26] was > 100 µM (inactive). For the same compound, the GI50 [27] was > 100 µM (inactive), the GI50 [28] was > 100 µM (inactive) and the GI50 [29] was > 100 µM (inactive). For the same compound, the GI50 [67] was > 100 µM (inactive), the GI50 [30] was > 100 µM (inactive) and the GI50 [68] was > 100 µM (inactive). The GI50 [31] was > 65.6 µM (inactive), the GI50 [32] was > 100 µM (inactive) and the GI50 [33] was > 100 µM (inactive). The GI50 [34] was > 100 µM (inactive), the GI50 [35] was > 100 µM (inactive) and the GI50 [36] was > 100 µM (inactive). For the same compound, the GI50 [37] was 36.4 µM (inactive), the GI50 [38] was > 86.3 µM (inactive) and the GI50 [39] was > 100 µM (inactive). For the same compound, the GI50 [40] was > 100 µM (inactive), the GI50 [41] was > 42.4 µM (inactive) and the GI50 [42] was > 100 µM. For the same compound, the GI50 [43] was 51.9 µM (inactive), the GI50 [44] was > 55.6 µM (inactive) and the GI50 [45] was > 100 µM (inactive). For the same compound, the GI50 [46] was 25.2 µM (inactive), the GI50 [47] was > 100 µM (inactive) and the GI50 [48] was > 100 µM (inactive). For the same compound, the GI50 [49] was > 100 µM (inactive), the GI50 [50] was > 100 µM (inactive) and the GI50 [51] was > 100 µM (inactive). For the same compound, the GI50 [52] was > 70.8 µM (inactive), the GI50 [53] was > 80 µM (inactive) and the GI50 [54] was > 100 µM (inactive). For the same compound, the GI50 [55] was > 100 µM (inactive), the GI50 [56] was > 73.6 µM (inactive) and the GI50 [57] was > 100 µM (inactive). The GI50 [58] was > 100 µM (inactive), the GI50 [59] was > 100 µM (inactive) and the GI50 [69] was > 94.4 µM (inactive). For the same compound, the GI50 [60] was > 100 µM (inactive), the GI50 [61] was > 94.2 µM (inactive) and the GI50 [62] was > 100 µM (inactive). The GI50 [63] was > 100 µM (inactive), the GI50 [64] was > 100 µM (inactive) and the GI50 [65] was > 100 µM (inactive).
